Experiments:
Test in all cases: Test C preemergence
Format in all cases: in vivo
[1] = tested on: crabgrass, large (large crabgrass, Digitaria sanguinalis); settings: for Plant response rating, Crabgrass, Large: scale 0 to 100, 0 no effect, 100 complete control
Description: (§1) Seeds of plant species selected from blackgrass (Alopecurus myosuroides), ryegrass, Italian (Italian ryegrass, Lolium multiflorum), wheat (winter wheat, Triticum aestivum), Galium (catchweed bedstraw, Galium aparine), corn (Zea mays), crabgrass, large (large crabgrass, Digitaria sanguinalis), foxtail, giant (giant foxtail, Setaria faberii), johnsongrass (Sorghum halepense), lambsquarters (Chenopodium album), morningglory (Ipomoea coccinea), nutsedge, yellow (yellow nutsedge, Cyperus esculentus), pigweed (Amaranthus retroflexus), ragweed (common ragweed, Ambrosia elatior), soybean (Glycine max), barnyardgrass (Echinochloa crus-galli), oilseed rape (Brassica napus), waterhemp (common waterhemp, Amaranthus rudis) and velvetleaf (Abutilon theophrasti) were planted into a blend of loam soil and sand and treated preemergence with test chemicals formulated in a non-phytotoxic solvent mixture which included a surfactant.
(§2) At the same time, plants selected from these crop and weed species and also Kochia (Kochia scoparia), oat, wild (wild oat, Avena fatua), and chickweed (common chickweed, Stellaria media) were planted in pots containing Sunshine Redi-Earth® planting medium comprising spaghnum peat moss, vermiculite, starter nutrients and dolomitic limestone and treated with postemergence applications of test chemicals formulated in the same manner. Plants ranged in height from 2 to 18 cm (1- to 4-leaf stage) for postemergence treatments. Treated plants and controls were maintained in a greenhouse for 13 to 15 d, after which time all species were compared to controls and visually evaluated. Plant response ratings, summarized in Table C, are based on a scale of 0 to 100 where 0 is no effect and 100 is complete control. A dash (-) response means no test result.

[2] = tested on: foxtail, giant (giant foxtail, Setaria faberii); settings: for Plant response rating, Foxtail, Giant: scale 0 to 100, 0 no effect, 100 complete control
Description: as §1, §2

[3] = tested on: barnyardgrass (Echinochloa crus-galli); settings: for Plant response rating, Barnyardgrass: scale 0 to 100, 0 no effect, 100 complete control
Description: as §1, §2

[4] = tested on: johnsongrass (Sorghum halepense); settings: for Plant response rating, Johnsongrass: scale 0 to 100, 0 no effect, 100 complete control
Description: as §1, §2

[5] = tested on: blackgrass (Alopecurus myosuroides); settings: for Plant response rating, Blackgrass: scale 0 to 100, 0 no effect, 100 complete control
Description: as §1, §2

[6] = tested on: wheat (winter wheat, Triticum aestivum); settings: for Plant response rating, Wheat: scale 0 to 100, 0 no effect, 100 complete control
Description: as §1, §2

[7] = tested on: pigweed (Amaranthus retroflexus); settings: for Plant response rating, Pigweed: scale 0 to 100, 0 no effect, 100 complete control
Description: as §1, §2

[8] = tested on: waterhemp (common waterhemp, Amaranthus rudis); settings: for Plant response rating, Waterhemp: scale 0 to 100, 0 no effect, 100 complete control
Description: as §1, §2

[9] = tested on: morningglory (Ipomoea coccinea); settings: for Plant response rating, Morningglory: scale 0 to 100, 0 no effect, 100 complete control
Description: as §1, §2

[10] = tested on: velvetleaf (Abutilon theophrasti); settings: for Plant response rating, Velvetleaf: scale 0 to 100, 0 no effect, 100 complete control
Description: as §1, §2

[11] = tested on: Galium (catchweed bedstraw, Galium aparine); settings: for Plant response rating, Galium: scale 0 to 100, 0 no effect, 100 complete control
Description: as §1, §2

soybean (Glycine max) = tested on: soybean (Glycine max)
Description: as §1, §2

[12] = tested on: lambsquarters (Chenopodium album); settings: for Plant response rating, Lambsquarters: scale 0 to 100, 0 no effect, 100 complete control
Description: as §1, §2

[13] = tested on: oilseed rape (Brassica napus); settings: for Plant response rating, Oilseed Rape: scale 0 to 100, 0 no effect, 100 complete control
Description: as §1, §2

corn (Zea mays) = settings: for Plant response rating, Corn: scale 0 to 100, 0 no effect, 100 complete control
Description: as §1, §2

[14] = tested on: nutsedge, yellow (yellow nutsedge, Cyperus esculentus); settings: for Plant response rating, Nutsedge, Yellow: scale 0 to 100, 0 no effect, 100 complete control
Description: as §1, §2

[15] = tested on: ragweed (common ragweed, Ambrosia elatior); settings: for Plant response rating, Ragweed: scale 0 to 100, 0 no effect, 100 complete control
Description: as §1, §2

[16] = tested on: ryegrass, Italian (Italian ryegrass, Lolium multiflorum); settings: for Plant response rating, Ryegrass, Italian: scale 0 to 100, 0 no effect, 100 complete control
Description: as §1, §2

[17] = 31 g ai/ha, 0 is no effect, 100 is complete control

CC(C)Oc1cccc(C2CN(C)C(=O)C2C(=O)Nc2cccc(F)c2F)c1 (stereo not shown) [Compound 651]
Plant response rating (scale of 0 to 100), Crabgrass, Large [1, 17]: 98 | Plant response rating, Crabgrass, Large ([1]; 62 g ai/ha): 100 | Plant response rating, Crabgrass, Large ([1]; 125 g ai/ha): 100 | Plant response rating, Crabgrass, Large ([1]; 250 g ai/ha): 100 | Plant response rating (scale of 0 to 100), Foxtail, Giant [2, 17]: 95 | Plant response rating, Foxtail, Giant ([2]; 62 g ai/ha): 98 | Plant response rating, Foxtail, Giant ([2]; 125 g ai/ha): 98 | Plant response rating, Foxtail, Giant ([2]; 250 g ai/ha): 100 | Plant response rating (scale of 0 to 100), Barnyardgrass [3, 17]: 95 | Plant response rating, Barnyardgrass ([3]; 62 g ai/ha): 98 | Plant response rating, Barnyardgrass ([3]; 125 g ai/ha): 100 | Plant response rating, Barnyardgrass ([3]; 250 g ai/ha): 100 | Plant response rating (scale of 0 to 100), Johnsongrass [4, 17]: 20 | Plant response rating, Johnsongrass ([4]; 62 g ai/ha): 50 | Plant response rating, Johnsongrass ([4]; 125 g ai/ha): 70 | Plant response rating, Johnsongrass ([4]; 250 g ai/ha): 80 | Plant response rating (scale of 0 to 100), Blackgrass [5, 17]: 40 | Plant response rating, Blackgrass ([5]; 62 g ai/ha): 45 | Plant response rating, Blackgrass ([5]; 125 g ai/ha): 60 | Plant response rating, Blackgrass ([5]; 250 g ai/ha): 85 | Plant response rating (scale of 0 to 100), Wheat [6, 17]: 50 | Plant response rating, Wheat ([6]; 62 g ai/ha): 50 | Plant response rating, Wheat ([6]; 125 g ai/ha): 55 | Plant response rating, Wheat ([6]; 250 g ai/ha): 75 | Plant response rating (scale of 0 to 100), Pigweed [7, 17]: 35 | Plant response rating, Pigweed ([7]; 62 g ai/ha): 40 | Plant response rating, Pigweed ([7]; 125 g ai/ha): 50 | Plant response rating, Pigweed ([7]; 250 g ai/ha): 85 | Plant response rating (scale of 0 to 100), Waterhemp [8, 17]: 20 | Plant response rating, Waterhemp ([8]; 62 g ai/ha): 40 | Plant response rating, Waterhemp ([8]; 125 g ai/ha): 50 | Plant response rating, Waterhemp ([8]; 250 g ai/ha): 85 | Plant response rating (scale of 0 to 100), Morningglory [9, 17]: 0 | Plant response rating, Morningglory ([9]; 62 g ai/ha): 0 | Plant response rating, Morningglory ([9]; 125 g ai/ha): 0 | Plant response rating, Morningglory ([9]; 250 g ai/ha): 0 | Plant response rating (scale of 0 to 100), Velvetleaf [10, 17]: 25 | Plant response rating, Velvetleaf ([10]; 62 g ai/ha): 45 | Plant response rating, Velvetleaf ([10]; 125 g ai/ha): 70 | Plant response rating, Velvetleaf ([10]; 250 g ai/ha): 70 | Plant response rating (scale of 0 to 100), Galium [11, 17]: 60 | Plant response rating, Galium ([11]; 62 g ai/ha): 50 | Plant response rating, Galium ([11]; 125 g ai/ha): 90 | Plant response rating, Galium ([11]; 250 g ai/ha): 90 | Plant response rating (scale of 0 to 100), Soybean (soybean (Glycine max); [17]): 5 | Plant response rating, Soybean (soybean (Glycine max); 125 g ai/ha, scale 0 to 100, 0 no effect, 100 complete control): 0 | Plant response rating (scale of 0 to 100), Lambsquarters [12, 17]: 35 | Plant response rating, Lambsquarters ([12]; 62 g ai/ha): 55 | Plant response rating, Lambsquarters ([12]; 125 g ai/ha): 85 | Plant response rating, Lambsquarters ([12]; 250 g ai/ha): 100 | Plant response rating (scale of 0 to 100), Oilseed Rape [13, 17]: 75 | Plant response rating, Oilseed Rape ([13]; 62 g ai/ha): 80 | Plant response rating, Oilseed Rape ([13]; 125 g ai/ha): 90 | Plant response rating, Oilseed Rape ([13]; 250 g ai/ha): 90 | Plant response rating (scale of 0 to 100), Corn (corn (Zea mays); [17]): 25 | Plant response rating, Corn (corn (Zea mays); 62 g ai/ha): 55 | Plant response rating, Corn (corn (Zea mays); 125 g ai/ha): 70 | Plant response rating, Corn (corn (Zea mays); 250 g ai/ha): 70 | Plant response rating (scale of 0 to 100), Nutsedge, Yellow [14, 17]: 0 | Plant response rating, Nutsedge, Yellow ([14]; 62 g ai/ha): 0 | Plant response rating, Nutsedge, Yellow ([14]; 125 g ai/ha): 0 | Plant response rating, Nutsedge, Yellow ([14]; 250 g ai/ha): 0 | Plant response rating (scale of 0 to 100), Ragweed [15, 17]: 20 | Plant response rating, Ragweed ([15]; 62 g ai/ha): 25 | Plant response rating, Ragweed ([15]; 125 g ai/ha): 60 | Plant response rating, Ragweed ([15]; 250 g ai/ha): 85 | Plant response rating (scale of 0 to 100), Ryegrass, Italian [16, 17]: 15 | Plant response rating, Ryegrass, Italian ([16]; 62 g ai/ha): 40 | Plant response rating, Ryegrass, Italian ([16]; 125 g ai/ha): 75 | Plant response rating, Ryegrass, Italian ([16]; 250 g ai/ha): 85

— US12077503B2, “Substituted cyclic amides and their use as herbicides” (FMC CORPORATION, priority 2015, dated 2024)
